# Measurements as given in a melting point compilation (Tetko et al.; mined from patent text by program, amines drawn as free bases though some values may be those of a salt).
row,SMILES,melting point
1,Cn1ncc(C(=O)O)c1OCc1ccccc1,117 to 122 °C
2,CCCc1nn(C)c2c(=O)n(CCNc3ccc(OC(C)(C)C(=O)O)cc3)c(CC)nc12,136 to 138 °C
3,Cc1c(-c2ccccc2)sc2ncc(C(=O)C(C)C)c(O)c12,114 to 117 °C
4,N#Cc1c(-c2ccccc2)c(-c2ccccc2)n[nH]c1=O,280 to 281 °C
5,CCOc1cc2c(cc1Cc1ccc3c(c1)OCO3)OCO2,44 °C
6,NC(=O)C1(c2cccc(Br)c2)CCOCC1,245 to 247 °C
7,CC(=O)c1c[nH]cc1-c1cccc(Cl)c1Cl,192 to 194 °C
8,CC(CNCC(O)c1ccccc1)OCc1ccccc1 (centres undefined),90 to 100 °C
9,Cc1oc2c(-c3ccc(F)cc3)c(-c3ccc(S(C)(=O)=O)cc3)nn2c1-c1ccccc1,234 to 236 °C
10,O=C(Nc1cnc2scnc2c1)c1cc2cc(F)ccc2n1Cc1cccc(F)c1,250 to 251 °C
11,COc1nc(C)nc(NC(=O)NS(=O)(=O)Cc2ccccc2-c2nnc(SC)o2)n1,175 to 177 °C
12,CC1=C(/C=C/C(C)=C/CO)C(C)(C)CC(O)C1=O (centres undefined),85 to 86 °C
13,CC(C)(SCC(=O)O)C(NS(=O)(=O)c1ccc(Oc2ccc(F)cc2)cc1)C(=O)O (centres undefined),69 °C
14,CS(=O)(=O)c1ccccc1NC(=O)c1ccccc1O,142 to 145 °C
15,CCCCOc1ccccc1C=CC(=O)c1ccc(OC)c(OC)c1OC,129 to 130 °C
16,CNC(=O)N1C(=O)CC(c2ccc(OC)c(OC3CCCC3)c2)N1C (centres undefined),65 to 68 °C
17,O=C(O)COc1cccc(-c2n[nH]c3c2Cc2ccccc2-3)c1,246 to 248 °C
18,CC1Nc2ccc(-c3ccc(C#N)s3)cc2C(C)(C)O1 (centres undefined),172 to 173 °C
19,COc1cc(C(O)(C(F)(F)F)C(F)(F)F)cc(C)c1OCC(=O)O,111 to 113 °C
20,CSc1nc(C)n(-c2ccc(N)cc2)n1,130 to 136 °C
21,Cn1c(C2=CC(=O)c3ccccc3C2=O)ccc1C1=CC(=O)c2ccccc2C1=O,320 to 321 °C
22,O=C(NCC(=O)N1c2ccccc2N(Cc2ccccc2)C(=O)[C@H]2CCC[C@H]21)c1ccc([N+](=O)[O-])cc1 (relative stereo),231 to 233 °C
23,O=C(O)c1ncc2[nH]c3c([N+](=O)[O-])cc([N+](=O)[O-])cc3c2n1,269 to 272 °C
24,CC1(C)CN(CC2Cc3ccccc3O2)c2nc(-c3ccncc3)cc(=O)n2C1 (racemic),147 to 149 °C
25,COC(=O)[C@H](CSSC[C@H](NC(=O)[C@@H]1CCC(=O)N1)C(=O)OC)NC(=O)[C@@H]1CCC(=O)N1,160 to 162 °C

row,SMILES,melting point
1,N#Cc1cnc(Nc2ccc(CCn3ccnc3)cc2)nc1-c1ccccc1,210 to 211 °C
2,COc1ccc2sc(C34CC5CC(CC(C5)C3)C4)cc(=O)c2c1,140 °C
3,O=C(C1=Cc2ccccc2C1)C12CC3CC(CC(C3)C1)C2,124 to 125 °C
4,CCOC(=O)C1=C(COC(C)=O)Nc2nc(N3CCOCC3)nc(N3CCOCC3)c2C1c1cccc(Cl)c1Cl (centres undefined),161 °C
5,Cc1cc(-c2cnn3c(C(F)(F)F)cc(-c4ccc(C(F)(F)F)c(C)c4)nc23)ccn1,237 °C
6,O=C(OCC(O)CO)c1ccc(C=Cc2csc3ccccc23)s1 (centres undefined),102 to 104 °C
7,COc1ccc(-c2sc(NC(C)=O)nc2C)cc1S(N)(=O)=O,342 °C
8,CCCCCCCCOc1cc(CBr)c(OCCCCCCCC)cc1CBr,83 °C
9,CCCC(=O)NCCC1=CCc2cc(F)c(OC)cc21,90 to 92 °C
10,COC1=Cc2ccccc2Nc2ccccc21,124 °C
11,CC(=O)OC1CSC(Oc2ccc(C(C)=O)nc2)C(OC(C)=O)C1OC(C)=O (centres undefined),149 °C
12,COC(=O)CCC(=NO)c1ccccc1,76 to 77 °C
13,CCCn1nc2c(N)nc3ccccc3c2c1CCNC(=O)Nc1ccc(F)c(F)c1,211 to 212 °C
14,CCCCCCCCCCCCCCCCCCOc1cccc2c(O)cccc12,90 to 92 °C
15,COC(C(N)=S)c1ccccn1 (centres undefined),157 to 159 °C
16,O=C(O)CCCCCCCCCCCCCCCCCCCCCI,71 to 72 °C
17,CCOC(=O)C1(C)C(=O)Nc2cc(N)ccc21 (centres undefined),248 °C
18,COC(=O)C(CCSC)NC(=O)c1ccc(NC(=O)Cc2cn(S(=O)(=O)c3ccc(C)cc3)cn2)cc1-c1ccccc1 (centres undefined),202 to 203 °C
19,O=C(Nc1ccc(-n2ccnc2)cc1)Nc1ccc(C(F)(F)F)cc1,209 to 213 °C
20,CC(C)CC(C=O)NC(=O)C(Cc1c[nH]cn1)NC(=O)C1Cc2c([nH]c3ccccc23)CN1C(=O)OCc1ccccc1 (centres undefined),126 to 130 °C
21,O=C(c1ccc(O)cc1)c1cc(C(=O)c2ccc(O)cc2)cc([N+](=O)[O-])c1,230 to 232 °C
22,C=CCc1c(O)cc(O)c(C(C)=O)c1O,158 to 159 °C
23,O=C1Nc2ccc(Cl)cc2C(OCC2CC2)(C(F)(F)F)CN1C1CC1 (centres undefined),154 to 155 °C
24,CC(=O)SCC(Cc1ccccc1)C(=O)Nc1cc2ccccc2cc1C(=O)O (centres undefined),138 to 141 °C
25,Cc1nnsc1C(=O)Nc1ccc(-n2nc(-c3cccnc3)cc2C#N)cc1,215 to 218 °C

row,SMILES,melting point
1,O=C(N[C@H]1CC[C@H](CCN2CCN(c3nccc4c3CCO4)CC2)CC1)c1ccnc2ccccc12,210 °C
2,NC(=O)c1cc(NCc2ccc(F)cc2)c([N+](=O)[O-])cc1[N+](=O)[O-],178 to 180 °C
3,CC1Cc2c(c3cccnc3n(-c3cccc(C(F)(F)F)c3)c2=O)O1 (centres undefined),205 to 207 °C
4,Cc1n[nH]c2cc(-c3nn(C(C)c4oc5ccccc5c(=O)c4-c4cccc(F)c4)c4ncnc(N)c34)ccc12 (centres undefined),158 to 161 °C
5,COc1ccc(OC)c(C(=O)c2cccc([N+](=O)[O-])c2)c1,98 °C
6,CCCc1nc(NC(C)=O)nc(N2CCOCC2)n1,141 to 142 °C
7,CSc1ccc(COc2c(C)c(C)c3c(c2C)C(c2ccc(C(C)C)cc2)C(C)(C)O3)cc1 (centres undefined),118 to 120 °C
8,COc1ccc(Nc2nc(NC3CCCCCC3)nc(Oc3ccccc3C#CC(C)(C)O)n2)cc1Cl,150 to 158 °C
9,O=C1CNC(=O)N1c1ccncc1,232 to 234 °C
10,CC(=O)NC(=O)c1ccc(OCCn2ccnc2)cc1,164 to 165 °C
11,COc1ccccc1C1OC2(CCNCC2)N2CCCCC12 (centres undefined),185 to 186 °C
12,COc1cc(C(=O)O)c2oc(-c3ccccc3)cc2c1,185 to 187 °C
13,Nc1ncnc2c1ncn2OCC(O)COCP(=O)(O)O (centres undefined),218 to 221 °C
14,O=C(O)c1c(-c2ccc(Cl)cc2)ccnc1Br,204 to 208 °C
15,COc1ccc(N=Nc2ccc(O)c(C(=O)Nc3ccc(OC)c(-c4nn(C(C)=O)c5cc(C)nn45)c3)c2)cc1,282 to 283 °C
16,COc1ccc(-c2nc(Sc3ccc(C(F)(F)F)cc3)[nH]c2-c2ccc(OC)cc2)cc1,179 to 181 °C
17,COc1cc2sc(C(=N)NO)cc2cc1OC(F)F,176 to 177 °C
18,CC(=O)OCc1cc(COC(C)=O)n(C(c2ccccc2)(c2ccccc2)c2ccccc2)n1,119 to 121 °C
19,CCOC(=O)c1cnc(-c2cc(N)ccc2OCC)[nH]c1=O,107 to 110 °C
20,Cc1cc(C)c(COc2cccnc2NC(=S)Nc2ccc(Cl)cc2)c(C)c1,180 to 182 °C
21,O=C(Nc1ccc(C(F)(F)F)cn1)Oc1ccccc1,203 °C
22,COc1ccc(F)c(C(N)=O)c1F,167 to 169 °C
23,CC(C)n1c(=O)n(C(N)=O)c2ccccc21,195 to 196 °C
24,CC(C)c1ccc(NC(=O)C2CCCc3c(OCc4ccccc4)ccc(F)c32)cn1 (centres undefined),184 °C
25,O=c1c2ccc([N+](=O)[O-])cc2nc2n1CCC2=Cc1ccccc1,196 to 197 °C

row,SMILES,melting point
1,O=C(NC1CCC2(CC1)CSC1=C(O2)c2ccccc2C(=O)C1=O)Oc1cccc(C(F)(F)F)c1 (centres undefined),198 to 199 °C
2,Cc1nc(Nc2ccc(F)cc2)nc(N2CCc3ccccc3C2CO)c1C (centres undefined),198 to 200 °C
3,NC(=O)c1cc(-c2ccc(F)cc2)ccc1O,206 to 207 °C
4,CC(c1ccc(F)cc1)n1nc(-c2ccc(F)cc2)c(-c2ccc(S(C)(=O)=O)cc2)cc1=O (centres undefined),185 to 186 °C
5,COC(=O)c1c(-c2ccccc2C)c2cc(C)c(C)cc2[nH]c1=O,288 to 289 °C
6,CCN1C(=O)C2Cc3c([nH]c4ccccc34)C(c3ccc(N(C)C)cc3)N2C1=O (centres undefined),262 to 265 °C
7,O=c1cc(-c2ccc(F)cc2)oc(N2CCOCC2)c1,216 to 217 °C
8,COc1ccc(COc2cccc(C(=O)Nc3ccc(S(C)=O)cc3)c2)cc1 (centres undefined),135 to 136 °C
9,O=C(CCc1ccccc1)N[C@H]1CCCN2CCC[C@@H](C(=O)O)N2C1=O,198 to 202 °C
10,CN1CCC[C@@H]1Cc1c(-c2ccccc2)[nH]c2ccccc12,132 °C
11,Cc1ccc(S(=O)(=O)Oc2ccc(NC(=O)NCCCl)cc2)cc1,149 to 150 °C
12,COc1ncnc(N2CCCC2)c1Cc1cccc(F)c1,74 to 76 °C
13,c1cnc2c(c1)cc(-c1nnn[nH]1)c1nnnn12,280 to 282 °C
14,O=C(Nc1ncnc2c1ncn2CC(O)CF)c1ccccc1 (racemic),197 °C
15,CCCCCCCCCCCCC1CC(=O)N(NC(=O)CCc2cc(C(C)(C)C)c(O)c(C(C)(C)C)c2)C1=O (centres undefined),55 to 60 °C
16,CC(=O)c1ccc(C(=O)N(C)C)o1,101 to 104 °C
17,COc1nc(NC(C)C)nc(NC2CC2)n1,77 to 80 °C
18,Cn1nc(N)nc1NCCCOc1cccc(CN2C(=O)c3ccccc3C2=O)c1,55 to 57 °C
19,CC(C)OC(=O)c1cc(N)n(C)n1,86 to 87 °C
20,CCOC(=O)c1nnc2c(sc3nc(C)ccc32)c1OCC,158 to 160 °C
21,FC(F)Oc1ccc2c(Cc3c(Cl)cncc3Cl)nnc(-n3cncn3)c2c1,220 to 224 °C
22,Cc1cc(F)ccc1NC(=O)c1cccc(S(=O)(=O)N(C)c2ccc(Br)cc2)c1,163 to 165 °C
23,C[C@@H]1N=C(c2ccccc2Cl)c2cc([N+](=O)[O-])ccc2NC1=O,200 to 202 °C
24,COc1cc(OC2CCN(S(=O)(=O)CCNC3CC3)CC2)ccc1CC(=O)N1CCN(c2ccccc2C)CC1C(N)=O (centres undefined),69 to 110 °C
